Consider 30 compounds from patent US5138069A (E. I. Du Pont de Nemours and Company, priority 1988, dated 1992).

Where two headings read alike, the source gives them in different places.

Assay [1] deals with AII receptor. Put plainly: Angiotensin II receptor binding (displacement of 3H-AII). As to conditions: read-out: Angiotensin II Receptor Binding IC50, rat adrenal cortical microsomes, 2 nM 3H-AII, 1 hour, room temperature. In outline:
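The receptor source was rat adrenal cortical microsomes in Tris buffer, incubated with 2 nM ³H-AII plus or minus test compound for 1 h at room temperature. Bound and free ligand were separated by rapid filtration on glass-fibre filters. Filter-bound ³H-AII was counted by scintillation.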
In general terms: In a radioligand displacement assay an active substance lowers the binding of a labelled ligand.

For assay [2], the system named is Renal Hypertensive Rats. The experiment in a line: Antihypertensive effects in renal hypertensive rats.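 For all read-outs here: effective means a significant fall in blood pressure at the dose shown or below.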 The format is in vivo. As to conditions: Rattus norvegicus; for minimal effective dose at 3 mg/kg / minimal effective dose at 30 mg/kg: Table 26; for minimal effective dose at 3 mg/kg / minimal effective dose at 10 mg/kg: intravenous; for minimal effective dose at 30 mg/kg / minimal effective dose at 100 mg/kg: oral; for minimal effective dose at 10 mg/kg / minimal effective dose at 100 mg/kg: Table 25; for minimal effective dose at 10 mg/kg: 10 mg/kg or less; for minimal effective dose at 100 mg/kg: 100 mg/kg or less. In outline:
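Renal hypertensive rats (renin-driven AII elevation) dosed orally at 100 mg/kg and/or i.v. via jugular cannula at 10 mg/kg; a second set used 30 mg/kg oral and 3 mg/kg i.v. Arterial pressure recorded continuously via carotid cannula and compared with pretreatment levels.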

[3] abbreviates: Table 25, tested as sodium salt.

`CCCCc1nc(CO)c(Cl)n1Cc1ccc(-c2ccccc2-c2nn[nH]c2C#N)cc1` [Example 337, 2-n-Butyl-5-chloro-1-[(2'-(5-cyano-1,2,3-triazol-4-yl)biphenyl-4-yl)methyl]-4-hydroxymethylimidazole]: the IC50 (in general, the concentration needed to halve the response being measured) in assay [1] (Table 26) turned out to be 760 nM. In addition, in assay [2], the minimal effective dose (in general, the smallest amount tested that counted as effective) at 3 mg/kg was below 3 mg/kg and the minimal effective dose at 30 mg/kg was above 30 mg/kg.

Take `CCCCc1nc(Cl)c(/C=C/C(=O)OC)n1Cc1ccc(NC(=O)c2ccccc2C(=O)O)cc1` [Example 242]: in assay [1] (Table 25), the half-maximal inhibitory concentration (IC50) was 270 nM. Besides, in assay [2], the minimal effective dose at 10 mg/kg was below 10 mg/kg.

Turning to `CCCCc1nc(Cl)c(CC(=O)OC)n1Cc1ccc(NC(=O)[C@@H]2CCCC[C@@H]2NS(=O)(=O)C(F)(F)F)cc1` (relative stereo) [Example 74 (cis compound), methyl 2-butyl-4-chloro-1-[4-(cis-2-(trifluoromethanesulfonamido)cyclohexanecarboxamido)benzyl]imidazole-5-acetate], the IC50 in assay [1] (Table 25) came to 4500 nM. In assay [2], this compound gave a minimal effective dose at 10 mg/kg below 10 mg/kg and a minimal effective dose at 100 mg/kg above 100 mg/kg.

As to `CCCCc1nc(Cl)c(CO)n1Cc1ccc(-c2ccccc2-c2c[nH]nn2)cc1` [Example 177], in assay [1] (Table 25), the IC50 was 9600 nM. In assay [2], this compound came in with a minimal effective dose at 10 mg/kg below 10 mg/kg and a minimal effective dose at 100 mg/kg above 100 mg/kg.

Consider `CCCCCCc1nccn1Cc1ccc(NC(=O)c2ccccc2C(=O)O)cc1` [Example 66], for which, in assay [1] (Table 25), the IC50 is 350 nM. In addition, in assay [2], the minimal effective dose at 10 mg/kg is below 10 mg/kg and the minimal effective dose at 100 mg/kg is above 100 mg/kg.

`CCCCc1nc(Cl)c(CC(=O)OC)n1Cc1ccc(NC(=O)c2cc(C)ccc2NS(=O)(=O)C(F)(F)F)cc1` [Example 53A]: the concentration for half-maximal inhibition (IC50) in assay [1] (Table 25) came out at 810 nM. In assay [2], this compound displayed a minimal effective dose at 10 mg/kg above 100 mg/kg and a minimal effective dose at 100 mg/kg above 100 mg/kg.

As to `CCCCc1nc(Cl)c(CC(C)C(=O)OC(C)C)n1Cc1ccc(NC(=O)c2ccccc2NS(=O)(=O)C(F)(F)F)cc1` (stereo not shown) [Example 237, 3-[1-(4-((N-trifluoromethanesulfonyl)anthranilamido)benzyl)-2-butyl-4-chlorimidazol-5-yl]-2-methylpropanoic acid, isopropyl ester], in assay [1] (Table 25), the IC50 was 120 nM. In assay [2], this compound displayed a minimal effective dose at 10 mg/kg below 10 mg/kg and a minimal effective dose at 100 mg/kg above 100 mg/kg.

Take `CCCCc1nc(Cl)c(CO)n1Cc1ccc(-c2ccccc2C(=O)O)cc1` [Example 94, 2-butyl-1-[(2'-carboxybiphenyl-4-yl)methyl]-4-chloro-5-hydroxymethylimidazole]: the IC50 in assay [1] (Table 25) amounted to 280 nM. In assay [2], this compound showed a minimal effective dose at 10 mg/kg below 10 mg/kg and a minimal effective dose at 100 mg/kg below 100 mg/kg.

With `CCC=Cc1nc(C(F)(F)F)c(C=O)n1Cc1ccc(-c2ccccc2C(=O)O)cc1` [Example 140F], the IC50 in assay [1] (Table 26) stood at 200 nM. In assay [2], the minimal effective dose at 3 mg/kg is below 3 mg/kg and the minimal effective dose at 30 mg/kg is below 30 mg/kg.

Turning to `CCCCc1nc(Cl)c(COC)n1Cc1ccc(C(=O)Nc2nnn[nH]2)cc1` [Example 79], the IC50 in assay [1] (setting [3]) came to 500 nM. Moreover, in assay [2] (tested as sodium salt), the minimal effective dose at 10 mg/kg is below 10 mg/kg and the minimal effective dose at 100 mg/kg was above 100 mg/kg.

Regarding `CCCCc1nc(CC(=O)OC)c(Cl)n1Cc1ccc(NC(=O)c2ccccc2C(=O)O)cc1` [Example 3, Methyl 2-butyl-1-[4-(2-carboxybenzamido)benzyl]-5-chloroimidazole-4-acetate], in assay [1] (setting [3]), the half-maximal inhibitory concentration (IC50) came to 420 nM. The minimal effective dose at 100 mg/kg in assay [2] (tested as sodium salt) was above 100 mg/kg.

Turning to `CCCc1nc(Cl)c(CO)n1Cc1ccc(-c2ccccc2C(=O)O)cc1` [Example 108], in assay [1] (Table 25), the IC50 turned out to be 160 nM. In assay [2], this compound showed a minimal effective dose at 10 mg/kg below 10 mg/kg and a minimal effective dose at 100 mg/kg below 100 mg/kg.

For `CCCCc1nc(Cl)c(COC(C)C)n1Cc1ccc(-c2ccccc2C(=O)O)cc1` [Example 99], the IC50 in assay [1] (Table 25) came to 90 nM. In assay [2], this compound yielded a minimal effective dose at 10 mg/kg below 10 mg/kg and a minimal effective dose at 100 mg/kg below 100 mg/kg.

Turning to `CCCCc1nc(Cl)c(C(C)C(=O)O)n1Cc1ccc(-c2ccccc2C(=O)O)cc1` (stereo not shown) [Example 116], the IC50 in assay [1] (Table 25) worked out at 260 nM. Besides, in assay [2], the minimal effective dose at 10 mg/kg was below 10 mg/kg and the minimal effective dose at 100 mg/kg was below 100 mg/kg.

As to `CCCCc1nc(CO)c([N+](=O)[O-])n1Cc1ccc(-c2ccccc2C(=O)O)cc1` [Example 117], in assay [1] (Table 25), the IC50 is 890 nM. In assay [2], this compound yielded a minimal effective dose at 10 mg/kg below 10 mg/kg and a minimal effective dose at 100 mg/kg below 100 mg/kg.

Regarding `CCCCc1nc(Cl)c(CO)n1-c1ccc(NC(=O)c2ccccc2NS(=O)(=O)C(F)(F)F)cc1` [Example 325, 2-n-Butyl-4-chloro-5-hydroxymethyl-1-[4-((N-trifluoromethanesulfonyl)-anthranilamido)phenyl]imidazole], the concentration for half-maximal inhibition (IC50) in assay [1] (Table 25) came out at 730 nM. Also, the minimal effective dose at 10 mg/kg in assay [2] is below 10 mg/kg.

In the case of `CCCCc1nccn1Cc1ccc(NC(=O)c2ccccc2C(=O)O)cc1` [Example 64], in assay [1] (Table 25), the half-inhibitory concentration (IC50) amounted to 620 nM. In assay [2], this compound came in with a minimal effective dose at 10 mg/kg below 10 mg/kg and a minimal effective dose at 100 mg/kg above 100 mg/kg.

As for `CCCc1nc(C(F)(F)C(F)(F)F)c(C(=O)O)n1Cc1ccc(-c2ccccc2C(=O)O)cc1` [Example 265E], in assay [1] (Table 26), the IC50 was determined as 1600 nM. In assay [2], this compound yielded a minimal effective dose at 3 mg/kg below 3 mg/kg.

In the case of `CCCCc1nc(Br)c(C=O)n1Cc1ccc(-c2ccccc2C(=O)O)cc1` [Example 140D], in assay [1] (Table 26), the IC50 is 400 nM. Besides, in assay [2], the minimal effective dose at 3 mg/kg is below 3 mg/kg and the minimal effective dose at 30 mg/kg was below 30 mg/kg.

For `CCCCc1nc(C(F)(F)F)c(C(N)=O)n1Cc1ccc(-c2ccccc2-c2nnn[nH]2)cc1` [Example 140J], the IC50 in assay [1] (Table 26) was determined as 27 nM. Also, in assay [2], the minimal effective dose at 3 mg/kg was below 3 mg/kg and the minimal effective dose at 30 mg/kg is below 30 mg/kg.

Consider `CCCCc1nc(Cl)c(CN2CCN(c3ccccc3OC)CC2)n1Cc1ccc(-c2ccccc2C(=O)O)cc1` [Example 346, 2-n-Butyl-1-[(2'-carboxybiphenyl-4-yl)methyl]-4-chloro-5-[(1-(2-methoxyphenyl)piperazin-4-yl)methyl]imidazole], for which, in assay [1] (Table 25), the IC50 stood at 740 nM. In assay [2], this compound displayed a minimal effective dose at 10 mg/kg below 10 mg/kg.

For the compound `CCCCc1nc(Cl)c(COC)n1Cc1ccc(-c2ccccc2Cc2nn[nH]n2)cc1` [Example 174, 2-n-Butyl-4-chloro-5-methoxymethyl-1-[(2'-((tetrazol-5-yl)methyl)biphenyl-4-yl)methyl]imidazole], the IC50 in assay [1] (setting [3]) is 300 nM. In assay [2] (tested as sodium salt), the minimal effective dose at 10 mg/kg was below 10 mg/kg and the minimal effective dose at 100 mg/kg was above 100 mg/kg.

Take `CCCCc1nc(Cl)c(CO)n1Cc1ccc(-c2ccccc2-c2[nH]nnc2C#N)cc1` [Example 336]: the IC50 in assay [1] (Table 26) was determined as 280 nM. In assay [2], the minimal effective dose at 3 mg/kg is above 3 mg/kg and the minimal effective dose at 30 mg/kg is above 30 mg/kg.

Consider `CCCCc1nc(Cl)c(CNC(=O)OC)n1Cc1ccc(-c2ccccc2C(=O)O)cc1` [Example 150], for which the concentration for half-maximal inhibition (IC50) in assay [1] (setting [3]) is 200 nM. Also, in assay [2] (tested as sodium salt), the minimal effective dose at 10 mg/kg was below 10 mg/kg and the minimal effective dose at 100 mg/kg was below 100 mg/kg.

Regarding `CCCCc1nc(Cl)c(CCC(=O)OC)n1Cc1ccc(NC(=O)c2ccccc2NS(=O)(=O)C(F)(F)F)cc1` [Example 235, 3-[2-Butyl-4-chloro-1-(4-((N-trifluoromethanesulfonyl)anthranilamido)benzyl)imidazol-5-yl]-propanoic acid methyl ester], in assay [1] (Table 25), the IC50 was determined as 160 nM. In addition, in assay [2], the minimal effective dose at 10 mg/kg is below 10 mg/kg and the minimal effective dose at 100 mg/kg is above 100 mg/kg.

Turning to `CCCCc1nc(Cl)c(C(N)=O)n1Cc1ccc(-c2ccccc2C(=O)O)cc1` [Example 127, 1-[(2'-carboxybiphenyl-4-yl)methyl]-2-butyl-4-chloroimidazole-5-carboxamide], the IC50 in assay [1] (Table 25) was found to be 150 nM. Also, in assay [2], the minimal effective dose at 10 mg/kg is below 10 mg/kg and the minimal effective dose at 100 mg/kg is below 100 mg/kg.

As for `CC(C)c1nccn1Cc1ccc(NC(=O)c2ccccc2NS(=O)(=O)C(F)(F)F)cc1` [Example 58], the IC50 in assay [1] (Table 25) came out at 8300 nM. Moreover, in assay [2], the minimal effective dose at 10 mg/kg is below 10 mg/kg and the minimal effective dose at 100 mg/kg was above 100 mg/kg.

Consider `CCCCc1nc(Cl)c(CC(=O)OC)n1Cc1ccc(NS(=O)(=O)C(F)(F)F)cc1` [Example 21, Methyl 2-butyl-4-chloro-1-[4-(trifluoromethylsulfonamido)benzyl]imidazole-5-acetate], for which the IC50 in assay [1] (setting [3]) amounted to 2100 nM. Also, in assay [2] (tested as sodium salt), the minimal effective dose at 10 mg/kg is below 10 mg/kg and the minimal effective dose at 100 mg/kg is above 100 mg/kg.

For `CCCCc1nc(Cl)c(CC(C)C(=O)N[C@H](C)c2ccccc2)n1Cc1ccc(NC(=O)c2ccccc2C(=O)O)cc1` (single isomer, unassigned) [Example 238, d and l 3-[1-(4-(2-Carboxybenzamido)benzyl-2-butyl-4-chloroimidazol-5-yl]-2-methylpropanoic acid, d-(+)-α-methylbenzylamide], the half-inhibitory concentration (IC50) in assay [1] (Table 25) was 110 nM. Moreover, in assay [2], the minimal effective dose at 10 mg/kg was below 10 mg/kg and the minimal effective dose at 100 mg/kg is above 100 mg/kg.

Consider `CCCCc1nc(Cl)c(CNC(=O)OCCC)n1Cc1ccc(-c2ccccc2C(=O)O)cc1` [Example 151], for which the IC50 in assay [1] (setting [3]) came out at 560 nM. Also, in assay [2] (tested as sodium salt), the minimal effective dose at 10 mg/kg is below 10 mg/kg and the minimal effective dose at 100 mg/kg is below 100 mg/kg.
